Tests used:
[1] = system: donepezil-treated patients with moderate Alzheimer's disease; test: LADDER study: cognition (ADAS-cog) in donepezil-treated patients, incl. post-hoc analysis by NPI apathy score; assay type: in vivo, human
Protocol: The […] study that was conducted to assess the effect on cognitive performance of idalopirdine in donepezil-treated patients with moderate Alzheimer's disease. The […] study is registered with ClinicalTrials.gov, number NCT01019421 and is reported in Wilkinson D, et al. Safety and efficacy of idalopirdine, a 5-HT6 receptor antagonist, in patients with moderate Alzheimer's disease (LADDER): a randomised, double-blind, placebo-controlled phase 2 trial Lancet Neurol 2014; 13: 141-49. […] Patients were randomly assigned (1:1) to double-blind treatment with idalopirdine or placebo. The cognitive subscale of the 70-point, 11-item Alzheimer's Disease Assessment Scale (ADAS-cog) was rated at baseline and at weeks 4, 12, and 24. The ADAS-Cog scale is described in Rosen W G et al. A new scale for Alzheimer's disease. Am J Psychiatry 1984; 141: 1356-64. […] Subsequent to the analysis of the primary and secondary endpoints of the […] study as described in Example 2 above a post-hoc analysis was conducted. […] For the post-hoc analysis apathy was considered present if the apathy score as measured by Neuropsychiatric Inventory (NPI) was 1 or higher. The statistical analysis predicted a significant interaction at a 5% significance level between apathy score and treatment effect of idalopirdine on cognition as measured by the ADAS-Cog score (a negative score means less decline in cognitive skills and is thus desirable): […]

[2] = system: donepezil-treated patients with moderate Alzheimer's disease; test: LADDER study post-hoc analysis: Activities of Daily Living (ADCS-ADL) by NPI apathy score; assay type: in vivo, human
Protocol: Patients were randomly assigned (1:1) to double-blind treatment with idalopirdine or placebo. The same patient population as in Example 3 was analysed in a post-hoc analysis. For the post-hoc analysis apathy was considered present if the apathy score as measured by Neuropsychiatric Inventory (NPI) was 1 or higher. The statistical analysis predicted a significant interaction at a 5% significance level between apathy score and treatment effect of idalopirdine on Activities of Daily Living as measured by the ADCS-ADL score (Galasko et al; An inventory to assess activities of daily living for clinical trials in Alzheimer's Disease. Alzheimer Dis Assoc Disord. 1997;11(Suppl 2):22-32) (a positive score means an improvement): […]

h5-HT1A = molecular target: T1, h5-HT1A (Homo sapiens, UniProt P08908); settings: cited from earlier work
T1 sequence (P08908 1-422): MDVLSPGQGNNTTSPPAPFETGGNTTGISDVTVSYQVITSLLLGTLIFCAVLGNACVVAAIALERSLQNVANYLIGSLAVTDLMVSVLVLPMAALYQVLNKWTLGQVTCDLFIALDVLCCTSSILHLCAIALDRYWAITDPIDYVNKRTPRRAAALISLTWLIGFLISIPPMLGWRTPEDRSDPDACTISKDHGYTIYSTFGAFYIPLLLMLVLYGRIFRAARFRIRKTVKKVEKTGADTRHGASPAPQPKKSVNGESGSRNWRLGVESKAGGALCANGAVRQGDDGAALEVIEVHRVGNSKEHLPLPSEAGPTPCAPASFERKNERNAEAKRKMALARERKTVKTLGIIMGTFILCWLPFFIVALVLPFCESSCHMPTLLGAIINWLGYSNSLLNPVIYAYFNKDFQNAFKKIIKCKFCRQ

h5-HT1B = h5-HT1B (Homo sapiens, UniProt P28222); settings: cited from earlier work
Chain of h5-HT1B (P28222 whole entry): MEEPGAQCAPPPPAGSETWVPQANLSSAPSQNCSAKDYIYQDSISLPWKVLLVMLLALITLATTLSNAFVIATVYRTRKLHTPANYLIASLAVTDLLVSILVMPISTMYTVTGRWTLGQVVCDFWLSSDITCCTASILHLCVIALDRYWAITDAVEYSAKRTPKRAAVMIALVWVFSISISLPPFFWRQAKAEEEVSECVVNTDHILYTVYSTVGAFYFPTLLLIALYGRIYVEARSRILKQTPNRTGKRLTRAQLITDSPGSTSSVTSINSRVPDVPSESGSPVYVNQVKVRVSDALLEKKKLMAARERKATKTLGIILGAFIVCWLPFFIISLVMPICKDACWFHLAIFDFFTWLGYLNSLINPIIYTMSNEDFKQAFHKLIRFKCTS

h5-HT1D = h5-HT1D (Homo sapiens, UniProt P28221); settings: cited from earlier work
Chain of h5-HT1D (P28221 whole entry): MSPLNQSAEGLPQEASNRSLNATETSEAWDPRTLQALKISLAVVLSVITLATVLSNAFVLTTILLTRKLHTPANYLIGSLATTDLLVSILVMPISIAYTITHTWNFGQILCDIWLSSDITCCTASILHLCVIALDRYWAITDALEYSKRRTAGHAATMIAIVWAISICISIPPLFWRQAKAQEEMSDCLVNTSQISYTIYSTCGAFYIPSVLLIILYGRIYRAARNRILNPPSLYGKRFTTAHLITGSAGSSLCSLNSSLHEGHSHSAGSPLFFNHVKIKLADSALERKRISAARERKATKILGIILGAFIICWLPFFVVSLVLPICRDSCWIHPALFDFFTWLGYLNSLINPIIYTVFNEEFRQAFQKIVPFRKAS

h5-HT1E = h5-HT1E (Homo sapiens, UniProt P28566); settings: cited from earlier work
Chain of h5-HT1E (P28566 whole entry): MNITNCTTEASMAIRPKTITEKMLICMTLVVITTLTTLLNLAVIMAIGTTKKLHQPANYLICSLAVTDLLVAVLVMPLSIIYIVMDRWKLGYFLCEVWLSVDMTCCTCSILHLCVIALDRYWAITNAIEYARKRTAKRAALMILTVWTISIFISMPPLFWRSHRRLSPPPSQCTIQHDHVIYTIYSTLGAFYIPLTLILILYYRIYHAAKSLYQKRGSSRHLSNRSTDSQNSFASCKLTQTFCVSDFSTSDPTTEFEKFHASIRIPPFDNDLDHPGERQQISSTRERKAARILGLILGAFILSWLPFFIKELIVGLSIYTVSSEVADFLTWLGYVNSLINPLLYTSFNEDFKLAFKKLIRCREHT

h5-HT1F = molecular target: T2, h5-HT1F (Homo sapiens, UniProt P30939); settings: cited from earlier work
T2 sequence (P30939 1-366): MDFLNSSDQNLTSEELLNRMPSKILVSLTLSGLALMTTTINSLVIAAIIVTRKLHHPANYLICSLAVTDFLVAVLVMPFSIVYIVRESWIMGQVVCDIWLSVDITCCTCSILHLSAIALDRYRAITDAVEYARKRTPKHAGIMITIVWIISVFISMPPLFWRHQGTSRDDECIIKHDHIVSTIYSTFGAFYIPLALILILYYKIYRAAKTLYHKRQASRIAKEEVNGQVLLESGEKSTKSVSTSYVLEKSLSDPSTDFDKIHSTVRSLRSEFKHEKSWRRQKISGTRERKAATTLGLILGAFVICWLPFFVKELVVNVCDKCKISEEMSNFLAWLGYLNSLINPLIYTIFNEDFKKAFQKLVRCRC

h5-HT2A = h5-HT2A (Homo sapiens, UniProt P28223); settings: cited from earlier work
Chain of h5-HT2A (P28223 whole entry): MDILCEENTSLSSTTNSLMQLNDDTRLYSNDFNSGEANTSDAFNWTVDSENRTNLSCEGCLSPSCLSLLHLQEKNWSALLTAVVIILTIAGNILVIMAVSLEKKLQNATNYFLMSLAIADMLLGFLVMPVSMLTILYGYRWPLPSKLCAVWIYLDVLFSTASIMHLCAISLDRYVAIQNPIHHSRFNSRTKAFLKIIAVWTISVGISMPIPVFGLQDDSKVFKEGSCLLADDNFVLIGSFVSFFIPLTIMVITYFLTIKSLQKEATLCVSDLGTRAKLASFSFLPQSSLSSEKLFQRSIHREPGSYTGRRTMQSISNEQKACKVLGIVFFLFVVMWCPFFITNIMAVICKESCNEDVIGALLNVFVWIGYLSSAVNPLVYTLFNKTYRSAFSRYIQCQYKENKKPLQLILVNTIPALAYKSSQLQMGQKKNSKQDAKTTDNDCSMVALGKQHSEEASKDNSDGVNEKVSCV

h5-HT2B = h5-HT2B (Homo sapiens, UniProt P41595); settings: cited from earlier work
Chain of h5-HT2B (P41595 whole entry): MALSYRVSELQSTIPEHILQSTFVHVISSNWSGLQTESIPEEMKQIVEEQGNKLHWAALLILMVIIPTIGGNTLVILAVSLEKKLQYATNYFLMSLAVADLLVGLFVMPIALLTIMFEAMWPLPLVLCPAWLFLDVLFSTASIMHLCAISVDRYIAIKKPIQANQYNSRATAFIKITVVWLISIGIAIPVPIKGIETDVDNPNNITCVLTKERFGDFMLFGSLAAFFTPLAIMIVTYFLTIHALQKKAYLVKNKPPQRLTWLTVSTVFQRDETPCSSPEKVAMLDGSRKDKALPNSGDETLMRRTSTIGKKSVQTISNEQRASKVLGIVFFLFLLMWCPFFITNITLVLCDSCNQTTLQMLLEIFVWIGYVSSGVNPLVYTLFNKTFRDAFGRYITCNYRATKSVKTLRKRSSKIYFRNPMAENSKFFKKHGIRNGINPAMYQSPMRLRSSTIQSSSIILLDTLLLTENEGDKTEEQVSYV

h5-HT7 = h5-HT7 (Homo sapiens, UniProt P34969); settings: cited from earlier work
Chain of h5-HT7 (P34969 whole entry): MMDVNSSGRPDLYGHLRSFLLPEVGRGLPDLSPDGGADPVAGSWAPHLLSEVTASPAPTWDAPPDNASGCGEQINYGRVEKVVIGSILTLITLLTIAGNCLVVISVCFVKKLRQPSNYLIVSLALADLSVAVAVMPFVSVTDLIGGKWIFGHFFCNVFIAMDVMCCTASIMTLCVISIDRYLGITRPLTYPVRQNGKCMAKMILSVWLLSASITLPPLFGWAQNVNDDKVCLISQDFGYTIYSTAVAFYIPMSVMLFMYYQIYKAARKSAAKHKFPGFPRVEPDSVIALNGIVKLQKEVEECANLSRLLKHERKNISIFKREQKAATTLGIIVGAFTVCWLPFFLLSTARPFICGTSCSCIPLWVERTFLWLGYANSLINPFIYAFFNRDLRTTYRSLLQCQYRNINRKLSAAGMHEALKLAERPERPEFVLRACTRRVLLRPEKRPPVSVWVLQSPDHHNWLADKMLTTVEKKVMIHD

[3] = system: donepezil-treated patients with moderate Alzheimer's disease; settings: add-on to donepezil 10 mg per day, all patients; cited from earlier work
[4] = system: donepezil-treated patients with moderate Alzheimer's disease; settings: add-on to donepezil; cited from earlier work

For `Fc1ccc2c(CCNCc3cccc(OCC(F)(F)C(F)F)c3)c[nH]c2c1` [idalopirdine, N-(2-(6-fluoro-1H-indol-3-yl)ethyl)-3-(2,2,3,3-tetrafluoropropoxy)-benzylamine], the “Estimated change in effect on cognition at week 24 per unit increase in NPI apathy item score (Estimate)” value ([1]; ADAS-Cog score, negative = less decline, add-on to donepezil) was −0.64, the “Effect on cognition at week 24 in patients without apathy (Estimate)” value ([1]; ADAS-Cog, NPI apathy score 0, add-on to donepezil) was −0.81 and the “Effect on cognition at week 24 in patients with apathy (Estimate)” value ([1]; ADAS-Cog, NPI apathy score 1 or higher, add-on to donepezil) was −3.8. The “Estimated change in effect on ADL at week 24 per unit increase in NPI apathy item score (Estimate)” value ([2]; ADCS-ADL score, positive = improvement, add-on to donepezil) was 0.92, the “Effect on ADL at week 24 in patients without apathy (Estimate)” value ([2]; ADCS-ADL, NPI apathy score 0, add-on to donepezil) was 0.39 and the “Effect on ADL at week 24 in patients with apathy (Estimate)” value ([2]; ADCS-ADL, NPI apathy score 1 or higher, add-on to donepezil) was 2.89. For the same compound, the Ki (h5-HT1A) was 2300 nM, the Ki (h5-HT1B) was greater than 10000 nM and the Ki (h5-HT1D) was 2600 nM. For the same compound, the Ki (h5-HT1E) was greater than 4600 nM, the Ki (h5-HT1F) was 2400 nM and the Ki (h5-HT2A) was 83 nM. For the same compound, the Ki (h5-HT2B) was greater than 4100 nM, the Ki (h5-HT7) was greater than 10000 nM and the “Change from baseline in the ADAS-cog at week 24 (primary endpoint) versus placebo” value [3] was “significantly better with idalopirdine than with placebo”. For the same compound, the “Effects on pre-specified secondary efficacy endpoints at week 24” value [4] was “None of the effects of idalopirdine on the pre-specified secondary endpoints were statistically significant”.
